Results as given in US4564684A, “3-Amino-1-phenyl-2-pyrazolines” (priority 1980, dated 1986).
pIC50: −log10 of the molar value. Structures can show the parent of a compound that is named as a salt.

Columns and labels:
cyclo-oxygenase = experiment: Inhibition of cyclo-oxygenase in an enzyme assay according to the method of Blackwell and Flower; type: biochemical; settings: Table I, read-out: ED50 for inhibition of cyclo-oxygenase
lipoxygenase = experiment: Inhibition of lipoxygenase in an enzyme assay according to the method of Blackwell and Flower; type: biochemical; settings: Table I, read-out: ED50 for inhibition of lipoxygenase

CCCNC1=NN(c2cccc(C(F)(F)F)c2)CC1 [Example 3, 3-propylamino-1-(3-trifluoromethylphenyl)-2-pyrazoline]
pIC50 (cyclo-oxygenase): > 6.52 | pIC50 (lipoxygenase): > 6.52

CNC1=NN(c2cccc(C(F)(F)F)c2)CC1 [Example 1, 3-methylamino-1-(3-trifluoromethylphenyl)-2-pyrazoline]
pIC50 (cyclo-oxygenase): ~6.52 | pIC50 (lipoxygenase): ~6.52

CCCCNC1=NN(c2cccc(C(F)(F)F)c2)CC1 [Example 4, 3-butylamino-1-(3-trifluoromethylphenyl)-2-pyrazoline]
pIC50 (cyclo-oxygenase): > 6.52 | pIC50 (lipoxygenase): > 6.52

CCNC1=NN(c2cccc(C(F)(F)F)c2)CC1 [Example 2, 3-ethylamino-1-(3-trifluoromethylphenyl)-2-pyrazoline]
pIC50 (cyclo-oxygenase): ~6.10 | pIC50 (lipoxygenase): ~6.15

FC(F)(F)c1cccc(N2CCC(NCc3ccccc3)=N2)c1 [Example 5, 3-benzylamino-1-(3-trifluoromethylphenyl)-2-pyrazoline hydrochloride]
pIC50 (cyclo-oxygenase): ~6.52 | pIC50 (lipoxygenase): ~6.52
